# System: dd mice
# Experiment: Acute Toxicity
# Format: in vivo, mouse (male dd)
# Conditions: subcutaneous, 2000 mg/kg, five male dd mice
structure (smiles),measurement,value
"Oc1cc(O)c2c(c1)O[C@H](c1ccc(O)c(O)c1)[C@H](O)[C@H]2c1c(O)cc(O)c2c1O[C@H](c1ccc(O)c(O)c1)[C@H](O)C2 [Compound 2, epicatechin-(4β→8)-epicatechin]",mortality,none of the mice died

# From patent US6126940A, “Hair-growing agent comprised of proanthocyanidins” (Kyowa Hakko Kogyo Co., Ltd., priority 1994, dated 2000)
